Values quoted from earlier work, collected in patent publication US9827328B2, “Combination therapy for treatment of cancer” (UNIVERSITY OF SOUTH ALABAMA, priority 2011, dated 2017).
Like-named read-outs stand apart in the source and are kept apart here.

How the values were obtained:
[1] = tested on: patients with metastatic breast cancer
[2] = tested on: patients with advanced or metastatic breast cancer; conditions: weekly nab-paclitaxel v every-three week Taxotere

Row | number of patients with persistent grade 3 sensory neuropathy ([1]; by day 28 after first occurrence) | episodes of motor neuropathy or grade 4 sensory neuropathy ([1]; in vivo) | mean neutrophil nadir ([1]; in vivo) [L⁻¹] | treatment-related grade 3 sensory neuropathy ([1]; in vivo) [%] | rate of grade 4 neutropenia [2] [%] | Structure (SMILES) | incidence of hyperglycemia reported as adverse effect ([1]; all patients) [%] | median survival ([1]; all patients) [weeks] | median time to tumor progression (TTP) ([1]; all patients) [weeks] | overall response rate (ORR) ([1]; all patients, ITT) [%] | incidence of treatment-related grade 4 neutropenia ([1]; in vivo) [%] | severe (grade 3 or 4) treatment-related hypersensitivity reactions ([1]; nab-paclitaxel without premedication, Taxol with standard premedication) | tumor response rate ([1]; patients aged younger than 65 years) [%] | ORR ([1]; patients who received first-line therapy) [%] | ORR ([1]; patients with nonvisceral dominant lesions) [%] | tumor response rate ([1]; patients with visceral dominant lesions) [%] | ORR ([1]; patients ≧65 years old) [%] | ORR ([1]; prior anthracycline therapy, adjuvant/metastatic setting) [%] | ORR ([1]; prior anthracycline therapy, metastatic setting only) [%] | ORR ([1]; second-line or greater therapy) [%] | median survival ([1]; second-line or greater therapy) [weeks]
1 | 4 | No episodes | 1.31e+09 | 2 |  | CC(=O)O[C@H]1C(=O)[C@@]2(C)[C@H]([C@H](OC(=O)c3ccccc3)[C@]3(O)C[C@H](OC(=O)[C@H](O)[C@@H](NC(=O)c4ccccc4)c4ccccc4)C(C)=C1C3(C)C)[C@]1(OC(C)=O)CO[C@@H]1C[C@@H]2O [Taxol, paclitaxel] | 7 | 55.7 | 16.9 | 19 | 22 | grade 3 hypersensitivity reactions occurred | 19 | 27 | 19 | 19 | 19 | 18 | 14 | 13 | 46.7
2 |  |  |  |  | 75 | CC(=O)O[C@@]12CO[C@@H]1C[C@H](O)[C@@]1(C)C(=O)[C@H](O)C3=C(C)[C@@H](OC(=O)[C@H](O)[C@@H](NC(=O)OC(C)(C)C)c4ccccc4)C[C@@](O)([C@@H](OC(=O)c4ccccc4)[C@H]21)C3(C)C [Taxotere, docetaxel] |  |  |  |  |  |  |  |  |  |  |  |  |  |  | 
